Where “and” joins values, the source holds several entries; their conditions need not be identical. Equal entries are not always repeated. Results filed as inconclusive are left out.
Test system: MX-1 breast xenograft, nude mice, tumor weight T/C
Assay: NCI In Vivo Anticancer Drug Screen. Data for tumor model Human Mammary Carcinoma MX-1 Xenograft (intrarenal inoculation) in NU/NU Swiss (nude) mice
Details: endpoint: mean tumor weight change, higher = larger tumour
Method in brief: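 Activity is given as a ratio, with each measurement in the compound-treated arm divided by the matching measurement in vehicle-dosed controls. Tumour size or survival serves as the measured parameter.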

[1] = dose: 600.0 mg/kg/injection, schedule: Q04DX003 (sc), vehicle: saline with Tween-80
[2] = dose: 300.0 mg/kg/injection, schedule: Q04DX003 (sc), vehicle: suspension in saline
[3] = dose: 300.0 mg/kg/injection, schedule: Q04DX003 (sc), vehicle: saline with Tween-80
[4] = dose: 1200.0 mg/kg/injection, schedule: Q04DX003 (sc), vehicle: saline with Tween-80
[5] = dose: 2400.0 mg/kg/injection, schedule: Q04DX003 (sc), vehicle: saline with Tween-80
[6] = dose: 150.0 mg/kg/injection, schedule: Q04DX003 (sc), vehicle: saline with Tween-80
[7] = dose: 600.0 mg/kg/injection, schedule: Q04DX003 (sc), vehicle: Klucel (hydroxypropylcellulose) (HPC)
[8] = dose: 2400.0 mg/kg/injection, schedule: Q04DX003 (sc), vehicle: Klucel (hydroxypropylcellulose) (HPC)
[9] = dose: 150.0 mg/kg/injection, schedule: Q04DX003 (sc), vehicle: Klucel (hydroxypropylcellulose) (HPC)
[10] = dose: 1200.0 mg/kg/injection, schedule: Q04DX003 (sc), vehicle: Klucel (hydroxypropylcellulose) (HPC)
[11] = dose: 75.0 mg/kg/injection, schedule: Q04DX003 (sc), vehicle: saline with Tween-80
[12] = dose: 300.0 mg/kg/injection, schedule: Q04DX003 (sc), vehicle: Klucel (hydroxypropylcellulose) (HPC)

In the case of `Cc1ccc(NCC2(/N=C/c3ccccc3)OC(CO)C(O)C2O)cc1` (stereo not given), the T/C (dose: 200.0 mg/kg/injection, schedule: Q04DX003 (sc), vehicle: Klucel (hydroxypropylcellulose) (HPC)) is reported as 109 % of control, the T/C (dose: 400.0 mg/kg/injection, schedule: Q04DX003 (sc), vehicle: Klucel (hydroxypropylcellulose) (HPC)) is reported as 124 % of control and the T/C (dose: 800.0 mg/kg/injection, schedule: Q04DX003 (sc), vehicle: Klucel (hydroxypropylcellulose) (HPC)) is reported as 94 % of control. For the same compound, the T/C (dose: 1600.0 mg/kg/injection, schedule: Q04DX003 (sc), vehicle: Klucel (hydroxypropylcellulose) (HPC)) was 101 % of control.

`NC(=O)NO` was tested, and the T/C (dose: 200.0 mg/kg/injection, schedule: Q01DX010 (sc), vehicle: saline) was 44 % of control and the T/C (dose: 400.0 mg/kg/injection, schedule: Q01DX010 (sc), vehicle: saline) was 49 % of control.

For `NC(=S)c1cn(C2OC(CO)C(O)C2O)c2ncnc(N)c12` (stereo not given), the T/C (dose: 6.25 mg/kg/injection, schedule: Q04DX003 (sc), vehicle: suspension in saline) was 50 % of control and the T/C (dose: 12.5 mg/kg/injection, schedule: Q04DX003 (sc), vehicle: suspension in saline) was 9 % of control.

With `CN=S(=O)(OCCCCCOS(=O)(=NC)c1ccccc1)c1ccccc1` (stereo not given) the T/C [1] was 76 % of control.

For `COc1ccc(/C=C/C(=O)c2cc(C(=O)O)c(OC)cc2OC)cc1OC`, the T/C [2] was 99 % of control.

`COc1cc(Cl)ccc1C` was tested, and the T/C [3] was 108 % of control, the T/C [1] was 88 % of control and the T/C [4] was 95 % of control. For the same compound, the T/C [5] was 76 % of control.

In the case of `OCCOCC(F)(F)F`, the T/C (dose: 300.0 mg/kg/injection, schedule: Q04DX003 (sc), vehicle: saline) is reported as 82 % of control, the T/C (dose: 1200.0 mg/kg/injection, schedule: Q04DX003 (sc), vehicle: saline) is reported as 86 % of control and the T/C (dose: 2400.0 mg/kg/injection, schedule: Q04DX003 (sc), vehicle: saline) is reported as 49 % of control.

In the case of `BrC1c2cccc3cccc(c23)C1Br` (stereo not given), the T/C [1] is reported as 202 % of control and the T/C [5] is reported as 113 % of control.

For `C/C=C/C=C1/OC(C)=C(C(C)=O)C1=O`, the T/C (dose: 200.0 mg/kg/injection, schedule: Q04DX003 (sc), vehicle: saline with Tween-80) was 104 % of control and the T/C (dose: 400.0 mg/kg/injection, schedule: Q04DX003 (sc), vehicle: saline with Tween-80) was 85 % of control.

With `CO[C@@H]1[C@H](O)CC[C@]2(CO2)[C@H]1[C@@]1(C)O[C@@H]1CC=C(C)C` the T/C [6] was 150 % of control, the T/C [3] was 79 % of control and the T/C [1] was 99 % of control. The T/C [4] was 96 % of control.

`O=c1c(O)c(-c2cc(O)c(O)c(O)c2)oc2cc(O)cc(O)c12` was tested, and the T/C (dose: 3.0 mg/kg/injection, schedule: Q04DX003 (sc), vehicle: saline with Tween-80) was 117 % of control, the T/C (dose: 6.0 mg/kg/injection, schedule: Q04DX003 (sc), vehicle: saline with Tween-80) was 97 % of control and the T/C (dose: 12.0 mg/kg/injection, schedule: Q04DX003 (sc), vehicle: saline with Tween-80) was 108 % of control. For the same compound, the T/C (dose: 24.0 mg/kg/injection, schedule: Q04DX003 (sc), vehicle: saline with Tween-80) was 81 % of control.

In the case of `O=Cc1ccc(C=O)c(Cl)c1`, the T/C [7] is reported as 77 % of control and the T/C [8] is reported as 120 % of control.

`Cn1cc(C2NC(=O)c3ccccc3N2)c2ccccc21` (stereo not given) was tested, and the T/C [9] was 113 % of control and the T/C [10] was 108 % of control.

For `C[Si](C)(C)n1nnn(-c2ccccc2)c1=O`, the T/C [11] was 90 % of control, the T/C [6] was 71 % of control and the T/C [1] was 91 % of control.

In the case of `O=C1C2CC=CCC2C(=O)N1SC(Cl)(Cl)Cl` (stereo not given), the T/C (dose: 37.5 mg/kg/injection, schedule: Q04DX003 (sc), vehicle: saline with Tween-80) is reported as 85 % of control, the T/C [11] is reported as 77 % of control and the T/C [6] is reported as 97 % of control and 119 % of control. For the same compound, the T/C [3] was 97 % of control and 112 % of control.

For `CCOC(C)C(/C=N/NC(N)=S)=NNC(N)=S` (stereo not given), the T/C (dose: 100.0 mg/kg/injection, schedule: Q01DX010 (sc), vehicle: saline with Tween-80) was 167 % of control, the T/C (dose: 200.0 mg/kg/injection, schedule: Q01DX010 (sc), vehicle: saline with Tween-80) was 123 % of control and the T/C (dose: 800.0 mg/kg/injection, schedule: Q01DX010 (sc), vehicle: saline with Tween-80) was 96 % of control.

For `C/C=C(\C)c1cc(=O)c2c(C)cc3c(c2o1)C(=O)c1c(O)c(C2CC(C)(N(C)C)C(O)C(C)O2)cc(C2CC(N(C)C)C(O)C(C)O2)c1C3=O` (stereo not given), the T/C (dose: 2.0 mg/kg/injection, schedule: Q04DX003 (sc), vehicle: saline) was 41 % of control, the T/C (dose: 4.0 mg/kg/injection, schedule: Q04DX003 (sc), vehicle: saline) was 24 % of control and the T/C (dose: 8.0 mg/kg/injection, schedule: Q04DX003 (sc), vehicle: saline) was 28 % of control.

For `C1CN2CCC1CC2`, the T/C (dose: 4.69 mg/kg/injection, schedule: Q04DX003 (sc), vehicle: saline with Tween-80) was 112 % of control and the T/C (dose: 9.38 mg/kg/injection, schedule: Q04DX003 (sc), vehicle: saline with Tween-80) was 93 % of control.

For `CCCCCC[C@H]([C@H](C)O)n1cnc2c(N)ncnc21`, the T/C (dose: 50.0 mg/kg/injection, schedule: Q01DX010 (sc), vehicle: Klucel (hydroxypropylcellulose) (HPC)) was 43 % of control, the T/C (dose: 100.0 mg/kg/injection, schedule: Q01DX010 (sc), vehicle: Klucel (hydroxypropylcellulose) (HPC)) was 116 % of control and the T/C (dose: 200.0 mg/kg/injection, schedule: Q01DX010 (sc), vehicle: Klucel (hydroxypropylcellulose) (HPC)) was 94 % of control.

For `CC1(C)CC23C4COC(=O)C2CCC1C3CC4=O` (stereo not given), the T/C (dose: 300.0 mg/kg/injection, schedule: Q04DX003 (sc), vehicle: DMSO) was 108 % of control, the T/C (dose: 600.0 mg/kg/injection, schedule: Q04DX003 (sc), vehicle: DMSO) was 82 % of control and the T/C (dose: 1200.0 mg/kg/injection, schedule: Q04DX003 (sc), vehicle: DMSO) was 104 % of control. The T/C (dose: 2400.0 mg/kg/injection, schedule: Q04DX003 (sc), vehicle: DMSO) was 74 % of control.

With `CCCCNCCCNCCCNC(=O)c1csc(-c2csc(CCNC(=O)C(NC(=O)C(C)C(O)C(C)NC(=O)C(NC(=O)c3nc(C(CC(N)=O)NCC(N)C(N)=O)nc(N)c3C)C(OC3OC(CO)C(O)C(O)C3OC3OC(CO)C(O)C(OC(N)=O)C3O)c3cnc[nH]3)C(C)O)n2)n1` (stereo not given) the T/C (dose: 8.0 mg/kg/injection, schedule: Q01DX010 (sc), vehicle: saline) was 104 % of control, the T/C (dose: 16.0 mg/kg/injection, schedule: Q01DX010 (sc), vehicle: saline) was 73 % of control and the T/C (dose: 32.0 mg/kg/injection, schedule: Q01DX010 (sc), vehicle: saline) was 39 % of control.

With `O=C1CN(CN2CCOCC2)C(=O)CN1CN1CCOCC1` the T/C (dose: 25.0 mg/kg/injection, schedule: Q01DX010 (sc), vehicle: suspension in saline) was 117 % of control, the T/C (dose: 50.0 mg/kg/injection, schedule: Q01DX010 (sc), vehicle: suspension in saline) was 119 % of control and the T/C (dose: 100.0 mg/kg/injection, schedule: Q01DX010 (sc), vehicle: suspension in saline) was 161 % of control. For the same compound, the T/C (dose: 200.0 mg/kg/injection, schedule: Q01DX010 (sc), vehicle: suspension in saline) was 87 % of control.

For `CC[C@@]1(O)C[C@H](OC2CC(N(C)C)C(OC3CC(O)C(OC4CCC(=O)C(C)O4)C(C)O3)C(C)O2)c2c(cc3c(c2O)C(=O)c2c(O)ccc(O)c2C3=O)[C@H]1C(=O)OC` (stereo not given in full), the T/C (dose: 3.0 mg/kg/injection, schedule: Q04DX003 (sc), vehicle: water) was 88 % of control and the T/C (dose: 6.0 mg/kg/injection, schedule: Q04DX003 (sc), vehicle: water) was 43 % of control.

With `Cc1cn(C2CC(F)C(CO)O2)c(=O)[nH]c1=O` (stereo not given) the T/C (dose: 150.0 mg/kg/injection, schedule: Q04DX003 (sc), vehicle: suspension in saline) was 56 % of control, the T/C [2] was 105 % of control and the T/C (dose: 600.0 mg/kg/injection, schedule: Q04DX003 (sc), vehicle: suspension in saline) was 111 % of control. For the same compound, the T/C (dose: 1200.0 mg/kg/injection, schedule: Q04DX003 (sc), vehicle: suspension in saline) was 93 % of control.

In the case of `O=NN(CCCl)C(=O)Oc1ccc(OC(=O)N(CCCl)N=O)cc1`, the T/C [9] is reported as 107 % of control, the T/C [12] is reported as 95 % of control and the T/C [7] is reported as 91 % of control. For the same compound, the T/C [10] was 117 % of control.

`COc1cccc2c1C(=O)c1c(O)c3c(c(O)c1C2=O)C[C@@](O)(C(=O)CO)C[C@@H]3OC1CC(OC(C)=O)C(OC(C)=O)C(C)O1` (stereo not given in full) was tested, and the T/C (dose: 6.25 mg/kg/injection, schedule: Q01DX010 (sc), vehicle: distilled water + Tween-80) was 82 % of control and the T/C (dose: 12.5 mg/kg/injection, schedule: Q01DX010 (sc), vehicle: distilled water + Tween-80) was 96 % of control.

With `COP12(OCCO1)SC(C(F)(F)F)=C(C(F)(F)F)S2` the T/C (dose: 125.0 mg/kg/injection, schedule: Q04DX003 (sc), vehicle: saline with Tween-80) was 119 % of control and the T/C (dose: 250.0 mg/kg/injection, schedule: Q04DX003 (sc), vehicle: saline with Tween-80) was 92 % of control.

With `C[Si](C)(C)OSc1ccccc1[N+](=O)[O-]` the T/C [12] was 92 % of control, the T/C [7] was 95 % of control and the T/C [10] was 80 % of control. The T/C [8] was 107 % of control.

— PubChem BioAssay AID296 (DTP/NCI, 2004)
